Here are results for 17 molecules from patent EP4043466B1, “PRC2 INHIBITORS” (Mirati Therapeutics, Inc., priority 2018, dated 2019).

Assay [1] has as its system PRC2-mediated histone H3 methylation. The assay can be described thus: Tri-Methyl Histone H3 (Lys 27) Sandwich ELISA in Pfeiffer cells: inhibition of PRC2-mediated histone H3 methylation. In kind it is cell-based, human. As to conditions: Homo sapiens; Inhibition of EZH2-mediated histone H3 trimethylation; Pfeiffer cells (EZH2 A677G), 96 hours incubation. From the text: The Pfeiffer cell line was established from a […] from a patient having metastatic diffuse large B-cell lymphoma (DLBCL). This cell line expresses a mutant form of the EZH2 enzyme (A677G) that results in enhanced EZH2 activity leading to increased methylation of histone H3 Lys27. Increased trimethylation of histone H3 Lys27 is believed to be implicated in tumorgenesis and poor clinical prognosis in lymphomas (McCabe et al., (2012) Nature 492:108-112).
Inhibition of PRC2-mediated histone H3 methylation by compounds of Formula (I) was measured by ELISA using a Tri-Methyl Histone H3 (Lys 27) Sandwich ELISA Kit (Cell Signaling Tech #7866C) in accordance with the manufacturer's instructions. Briefly, Pfeiffer cells were cultured in RPMI medium supplemented with 10% fetal bovine serum and 1% penicillin and 1% streptomycin in 96 well culture plates at 37°C to a density of 8000 cells/90µl/well and the cells were harvested. A series of 3-fold serial dilutions of each test compound of Formula (I) were prepared in RPMI medium and added to the cells at final concentrations ranging from 1µM to 0.15 nM. The plates were incubated at 37°C for 96 hours.
After incubation, the cells were pelleted by centrifugation in a pre-cooled 4°C rotor at 1, 100 rpm for 10 min and the supernatant was removed by aspiration. The cell pellet was resuspended in 55µl of Lysis Buffer (0.4M HCl) and incubated on ice with periodic shaking for 30 minutes. The lysed cells were subjected to centrifugation at 4, 200 rpm for 10 min at 4°C and the supernatant containing acid-soluble proteins was collected and the remainder discarded. The acid-soluble proteins were brought to a neutral pH by the addition of 20 µl of Neutralization Buffer (1 M Sodium phosphate, dibasic (pH 12.5), 2.5 mM DTT and 1 mM PMSF) and the neutralized lysates were analyzed by ELISA.
A 65 µl aliquot of each cell lysate was added to a well of a microwell strip, the microwells were sealed using tape and incubated either at 37°C for two hours or at 4°C overnight. After incubation, the tape was removed at the microwells were washed four times using 200 µl of 1X Wash Buffer. To each washed microwell, a 100 µl aliquot of an antitrimethyl histone H3 Lys27 Detection Antibody solution was added and the microwells were incubated at 37°C for one hour. The Detection Antibody solution was removed by aspiration and the wells were washed four times each using 200 µl of 1X Wash Buffer.
A 100 µl aliquot of an HRP-linked secondary antibody was added to each well, the wells were sealed with tape and incubated at 37°C for 30 min. The HRP-linked secondary antibody solution was removed by aspiration and the wells were washed four times using 200 µl of 1X Wash Buffer. A 100 µl aliquot of a TMB substrate was added to each well, the wells were sealed with tape and incubated at 37°C for 10 min or 25°C for 30 min. The reaction was stopped by the addition of 100 µl aliquot of a STOP solution and the plate was shaken briefly. The degree of histone H3 trimethylation was determined using a spectrophotometric readout by measuring the absorbance at 450 nm and then calculating the amount of trimethylated histone H3. A = ≤100 nM; B = >100 nM - ≤500 nM; C = >500 nM and N.D. = not determined.

The subject of another assay is Karpas 422 cells. The assay can be described thus: Karpas 422 cell viability, CTG (Cell Titre Glo) assay. The format is cell-based, human. As to conditions: Homo sapiens; Inhibition of proliferation of Karpas 422 cells (EZH2 Y641N); viability measured Day 4, Day 7 or Day 11, time point of the tabulated values not stated. Summed up:
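CellTiter-Glo viability IC50s taken at Day 4, Day 7 and Day 11 of continuous compound exposure (3-fold series, 10µM top, 1.5nM lowest) in RPMI/20% FBS at 37 °C. Y641N-mutant EZH2 lymphoma line seeded at 1000 cells per well; medium and compound replaced on Day 7 for Day 11 read.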

Assay [2] addresses purified human, His-tagged PRC2 complex (Homo sapiens, UniProt O75530+Q15910). The assay can be described thus: Hot Spot HMT assay: inhibition of PRC2 enzymatic activity (transfer of tritiated methyl from SAM to core histone, filter binding). In kind it is biochemical. Conditions: Inhibition of PRC2-mediated enzymatic activity; 10 nM PRC2 complex, 0.05 mg/ml core histone H3, 1 uM 3H-SAM, 1 hr at 30°C. Summed up:
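Serial compound dilutions starting at 1.0 µM were pre-incubated 20 min at 30°C with 10 nM complex (His-EZH2, Flag-EED, His-SUZ12, His-AEBP2, His-RbAp48) and 0.05 mg/ml core H3. Reaction ran 1 hr at 30°C after adding 1 uM [3H]-SAM; scintillation counting followed filtration.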

Sequence of purified human, His-tagged PRC2 complex (Q15910 whole entry): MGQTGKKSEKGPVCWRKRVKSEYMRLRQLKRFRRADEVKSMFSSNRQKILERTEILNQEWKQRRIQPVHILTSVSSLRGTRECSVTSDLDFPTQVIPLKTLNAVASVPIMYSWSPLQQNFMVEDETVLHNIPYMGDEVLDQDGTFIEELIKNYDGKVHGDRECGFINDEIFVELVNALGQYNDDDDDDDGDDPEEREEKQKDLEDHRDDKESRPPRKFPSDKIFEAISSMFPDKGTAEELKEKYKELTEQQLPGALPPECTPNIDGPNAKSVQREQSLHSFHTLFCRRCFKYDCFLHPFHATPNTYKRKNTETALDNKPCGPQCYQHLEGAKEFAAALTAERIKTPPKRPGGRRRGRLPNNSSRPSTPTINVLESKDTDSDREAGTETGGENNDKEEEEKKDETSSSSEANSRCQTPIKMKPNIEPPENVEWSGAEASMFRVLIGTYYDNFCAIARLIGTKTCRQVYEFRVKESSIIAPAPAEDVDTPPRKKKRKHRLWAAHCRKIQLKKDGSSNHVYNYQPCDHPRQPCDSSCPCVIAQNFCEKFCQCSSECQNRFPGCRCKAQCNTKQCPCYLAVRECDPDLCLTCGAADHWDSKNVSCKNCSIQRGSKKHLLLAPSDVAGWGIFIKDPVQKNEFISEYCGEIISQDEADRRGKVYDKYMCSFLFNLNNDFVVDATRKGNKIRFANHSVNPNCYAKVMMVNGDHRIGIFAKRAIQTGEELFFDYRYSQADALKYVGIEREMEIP
Sequence of purified human, His-tagged PRC2 complex (O75530 whole entry): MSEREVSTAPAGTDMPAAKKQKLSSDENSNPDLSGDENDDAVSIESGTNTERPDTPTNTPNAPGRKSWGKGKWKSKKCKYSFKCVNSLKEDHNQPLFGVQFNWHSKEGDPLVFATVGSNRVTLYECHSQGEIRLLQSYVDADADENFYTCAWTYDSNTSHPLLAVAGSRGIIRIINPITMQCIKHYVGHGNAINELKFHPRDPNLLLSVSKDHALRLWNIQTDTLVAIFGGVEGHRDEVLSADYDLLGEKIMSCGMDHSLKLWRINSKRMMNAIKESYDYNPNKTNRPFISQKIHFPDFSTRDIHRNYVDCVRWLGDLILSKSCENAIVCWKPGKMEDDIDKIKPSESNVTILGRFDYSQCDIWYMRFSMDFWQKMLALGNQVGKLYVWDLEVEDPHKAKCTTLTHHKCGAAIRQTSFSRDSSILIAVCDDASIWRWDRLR
Sequence of purified human, His-tagged PRC2 complex (Q15022 whole entry partner): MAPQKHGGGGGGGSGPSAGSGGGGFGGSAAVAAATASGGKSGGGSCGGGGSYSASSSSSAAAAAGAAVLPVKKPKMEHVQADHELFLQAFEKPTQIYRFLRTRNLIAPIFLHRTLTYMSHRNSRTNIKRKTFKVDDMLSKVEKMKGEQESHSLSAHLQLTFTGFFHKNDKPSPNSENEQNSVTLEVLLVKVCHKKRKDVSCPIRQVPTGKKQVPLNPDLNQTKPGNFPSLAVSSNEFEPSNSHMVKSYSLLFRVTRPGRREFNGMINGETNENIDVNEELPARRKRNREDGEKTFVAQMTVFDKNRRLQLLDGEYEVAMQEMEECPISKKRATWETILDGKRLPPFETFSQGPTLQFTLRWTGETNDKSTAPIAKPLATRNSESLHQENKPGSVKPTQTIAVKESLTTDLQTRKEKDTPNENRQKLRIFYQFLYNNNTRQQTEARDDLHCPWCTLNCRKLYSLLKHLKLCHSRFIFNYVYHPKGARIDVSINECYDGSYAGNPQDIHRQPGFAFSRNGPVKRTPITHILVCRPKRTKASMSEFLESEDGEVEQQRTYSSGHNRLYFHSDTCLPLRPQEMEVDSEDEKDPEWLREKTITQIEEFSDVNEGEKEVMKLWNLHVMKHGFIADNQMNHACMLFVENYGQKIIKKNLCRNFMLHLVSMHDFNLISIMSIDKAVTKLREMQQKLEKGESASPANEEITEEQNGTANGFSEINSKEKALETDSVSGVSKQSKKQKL
Sequence of purified human, His-tagged PRC2 complex (Q6ZN18 whole entry partner): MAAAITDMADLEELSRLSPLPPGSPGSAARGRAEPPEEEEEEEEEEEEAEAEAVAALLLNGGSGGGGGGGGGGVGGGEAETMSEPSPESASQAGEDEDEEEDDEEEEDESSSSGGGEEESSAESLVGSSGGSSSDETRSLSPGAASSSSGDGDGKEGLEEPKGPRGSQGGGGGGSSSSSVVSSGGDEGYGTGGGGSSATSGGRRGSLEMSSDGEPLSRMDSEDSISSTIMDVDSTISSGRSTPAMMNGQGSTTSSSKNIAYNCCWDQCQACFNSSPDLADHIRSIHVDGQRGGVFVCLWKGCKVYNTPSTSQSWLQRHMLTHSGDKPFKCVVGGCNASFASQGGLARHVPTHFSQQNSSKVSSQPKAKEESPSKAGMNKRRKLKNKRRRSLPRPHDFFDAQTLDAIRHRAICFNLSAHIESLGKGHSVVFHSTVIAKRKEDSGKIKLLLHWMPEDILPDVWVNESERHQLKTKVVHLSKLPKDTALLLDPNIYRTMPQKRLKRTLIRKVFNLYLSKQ
Sequence of purified human, His-tagged PRC2 complex (Q09028 whole entry partner): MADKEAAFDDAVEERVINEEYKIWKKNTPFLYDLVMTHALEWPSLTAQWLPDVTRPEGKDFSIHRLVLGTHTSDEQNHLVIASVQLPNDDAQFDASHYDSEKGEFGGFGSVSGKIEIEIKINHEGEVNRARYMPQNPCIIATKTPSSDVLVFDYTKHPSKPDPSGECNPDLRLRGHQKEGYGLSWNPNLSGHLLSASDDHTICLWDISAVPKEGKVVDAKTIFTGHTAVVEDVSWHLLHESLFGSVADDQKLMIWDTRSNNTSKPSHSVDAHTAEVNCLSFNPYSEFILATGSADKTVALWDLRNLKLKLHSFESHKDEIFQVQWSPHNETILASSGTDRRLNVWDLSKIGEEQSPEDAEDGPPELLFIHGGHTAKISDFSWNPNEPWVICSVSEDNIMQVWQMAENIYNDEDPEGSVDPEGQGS

In the case of `Cn1nc(C2CC2)cc1-c1cnc(NCc2c(F)ccc3c2CCO3)n2cc(C#N)nc12` [Example 144, 8-(3-cyclopropyl-1-methyl-1H-pyrazol-5-yl)-5-(((5-fluoro-2,3-dihydrobenzofuran-4-yl)methyl)amino)imidazo[1,2-c]pyrimidine-2-carbonitrile], the IC50 in assay [1] is 0.1 to 0.5 µM; in the assay on Karpas 422 cells, no more than 0.25 µM; in assay [2], less than 0.1 µM.
The like results for `N#Cc1cn2c(NCc3c(F)ccc4c3CCO4)ncc(-c3ccc(C(=O)O)nc3)c2n1` [Example 215, 5-(2-cyano-5-(((5-fluoro-2,3-dihydrobenzofuran-4-yl)methyl)amino)imidazo[1,2-c]pyrimidin-8-yl)picolinic acid] were, in that order, greater than 0.5 µM, greater than 0.5 µM and less than 0.1 µM.
Turning to `N#Cc1cn2c(NCc3c(F)ccc4c3CCO4)ncc(-c3ccn(CC4CCCO4)n3)c2n1` (stereo not drawn) [Example 153, 5-(((5-fluoro-2,3-dihydrobenzofuran-4-yl)methyl)amino)-8-(1-((tetrahydrofuran-2-yl)methyl)-1H-pyrazol-3-yl)imidazo[1,2-c]pyrimidine-2-carbonitrile], the IC50 in assay [1] was 0.1 to 0.5 µM; in the assay on Karpas 422 cells it was 0.25 to 0.5 µM; in assay [2] it was 0.1 to 0.5 µM.
Regarding `N#Cc1cn2c(NCc3c(F)ccc4c3CCO4)ncc(-c3ccnn3C3CC3)c2n1` [Example 193, 8-(1-cyclopropyl-1H-pyrazol-5-yl)-5-(((5-fluoro-2,3-dihydrobenzofuran-4-yl)methyl)amino)imidazo[1,2-c]pyrimidine-2-carbonitrile], the IC50 was 0.1 to 0.5 µM in assay [1], no more than 0.25 µM with Karpas 422 cells and less than 0.1 µM in assay [2].
The like results for `Cc1cc(-c2cnc(NCc3c(F)ccc4c3CCO4)n3cc(C#N)nc23)ccc1CN(C)C` [Example 200, 8-(4-((dimethylamino)methyl)-3-methylphenyl)-5-(((5-fluoro-2,3-dihydrobenzofuran-4-yl)methyl)amino)imidazo[1,2-c]pyrimidine-2-carbonitrile] were, in that order, 0.1 to 0.5 µM, no more than 0.25 µM and 0.1 to 0.5 µM.
`CN(C)Cc1ccc(-c2cnc(NCc3c(F)ccc4c3CCO4)n3cc(C#N)nc23)cc1F` [Example 63, 8-(4-((dimethylamino)methyl)-3-fluorophenyl)-5-(((5-fluoro-2,3-dihydrobenzofuran-4-yl)methyl)amino)imidazo[1,2-c]pyrimidine-2-carbonitrile]: the IC50 was no more than 0.1 µM in assay [1] and less than 0.1 µM in assay [2].
In the same order, the values of `N#Cc1cn2c(NCc3c(F)ccc4c3CCO4)ncc(-c3ccc(CN4CC5CC5C4)cc3)c2n1` (stereo not drawn) [Example 52, 8-(4-((3-azabicyclo[3.1.0]hexan-3-yl)methyl)phenyl)-5-(((5-fluoro-2,3-dihydrobenzofuran-4-yl)methyl)amino)imidazo[1,2-c]pyrimidine-2-carbonitrile] are no more than 0.1 µM and less than 0.1 µM.
Consider `Cc1ncccc1-c1cnc(NCc2c(F)ccc3c2CCO3)n2cc(C(=O)O)nc12` [Example 2, 5-(((5-fluoro-2,3-dihydrobenzofuran-4-yl)methyl)amino)-8-(2-methylpyridin-3-yl)imidazo[1,2-c]pyrimidine-2-carboxylic acid], for which the IC50 (in assay [1]; in the assay on Karpas 422 cells) was greater than 0.5 µM each time.
Consider `Cn1cc(-c2cnc(NCc3c(F)ccc4c3CCO4)n3cc(C#N)nc23)c(C#N)n1` [Example 224, 8-(3-cyano-1-methyl-1H-pyrazol-4-yl)-5-(((5-fluoro-2,3-dihydrobenzofuran-4-yl)methyl)amino)imidazo[1,2-c]pyrimidine-2-carbonitrile], for which the IC50 in assay [1] and in assay [2] was 0.1 to 0.5 µM each time.
Consider `N#Cc1cn2c(NCc3c(F)ccc4c3CCO4)ncc(-c3ccc(CN4CC(F)(F)C4)cc3)c2n1` [Example 51, 8-(4-((3,3-difluoroazetidin-1-yl)methyl)phenyl)-5-(((5-fluoro-2,3-dihydrobenzofuran-4-yl)methyl)amino)imidazo[1,2-c]pyrimidine-2-carbonitrile], for which the IC50 in assay [1] is no more than 0.1 µM; in assay [2], less than 0.1 µM.
In the same order, the values of `N#Cc1cn2c(NCc3c(F)ccc4c3CCO4)ncc(-c3cccnc3CO)c2n1` [Example 148, 5-(((5-fluoro-2,3-dihydrobenzofuran-4-yl)methyl)amino)-8-(2-(hydroxymethyl)pyridin-3-yl)imidazo[1,2-c]pyrimidine-2-carbonitrile] are 0.1 to 0.5 µM and less than 0.1 µM.
Turning to `Cn1nncc1-c1cnc(NCc2c(F)ccc3c2CCO3)n2cc(C#N)nc12` [Example 143, 5-(((5-fluoro-2,3-dihydrobenzofuran-4-yl)methyl)amino)-8-(1-methyl-1H-1,2,3-triazol-5-yl)imidazo[1,2-c]pyrimidine-2-carbonitrile], the IC50 in assay [1] was no more than 0.1 µM; in assay [2] it was less than 0.1 µM.
In the same order, the values of `N#Cc1cn2c(NCc3c(F)ccc4c3CCO4)ncc(-c3ccc(CN4CC(O)C4)cc3)c2n1` [Example 150, 5-(((5-fluoro-2,3-dihydrobenzofuran-4-yl)methyl)amino)-8-(4-((3-hydroxyazetidin-1-yl)methyl)phenyl)imidazo[1,2-c]pyrimidine-2-carbonitrile] are no more than 0.1 µM and less than 0.1 µM.
The like results for `N#Cc1cn2c(NCc3c(F)ccc4c3CCO4)ncc(-c3cnn4c3CCC4)c2n1` [Example 80, 8-(5,8-dihydro-4H-pyrrolo[1,2-b]pyrazol-3-yl)-5-(((5-fluoro-2,3-dihydrobenzofuran-4-yl)methyl)amino)imidazo[1,2-c]pyrimidine-2-carbonitrile] were, in that order, 0.1 to 0.5 µM and less than 0.1 µM.
Regarding `Cn1nc(C(=O)N2CCOCC2)cc1-c1cnc(NCc2c(F)ccc3c2CCO3)n2cc(C#N)nc12` [Example 209, 5-(((5-fluoro-2,3-dihydrobenzofuran-4-yl)methyl)amino)-8-(1-methyl-3-(morpholine-4-carbonyl)-1H-pyrazol-5-yl)imidazo[1,2-c]pyrimidine-2-carbonitrile], the IC50 in assay [1] is no more than 0.1 µM; in the assay on Karpas 422 cells it was no more than 0.25 µM.
Regarding `Cc1cc(C2CCCN2)ccc1-c1cnc(NCc2c(F)ccc3c2CCO3)n2cc(C#N)nc12` (single isomer, unassigned) [Example 213, 5-(((5-fluoro-2,3-dihydrobenzofuran-4-yl)methyl)amino)-8-(2-methyl-4-(pyrrolidin-2-yl)phenyl)imidazo[1,2-c]pyrimidine-2-carbonitrile], the IC50 in assay [1] was 0.1 to 0.5 µM; with Karpas 422 cells, no more than 0.25 µM.
In the same order, the values of `Cc1cc(-c2cnc(NCc3c(F)ccc4c3CCO4)n3cc(C(=O)O)nc23)n(C)n1` [Example 1, 8-(1,3-dimethyl-1H-pyrazol-5-yl)-5-(((5-fluoro-2,3-dihydrobenzofuran-4-yl)methyl)amino)imidazo[1,2-c]pyrimidine-2-carboxylic acid] are greater than 0.5 µM and greater than 0.5 µM.
